Source: patent publication US20230097866A1, “BACTERIAL TOPOISOMERASE INHIBITORS DERIVED FROM ISOMANNIDE” (Ohio State Innovation Foundation, priority 2020, published 2023)
Values after ≈ are worked out from the molar mass of the structure shown. Read-outs that look alike come from different tables or passages of the source.

Legend:
CYP3A4 = biological target: T1, CYP3A4 (Homo sapiens, UniProt P08684); experiment: CYP450 inhibition in human liver microsomes, CYP3A4; assay type: in vitro ADME; conditions: both sexes
T1 construct: incubated with human liver microsomes (mixed gender, pool of 50 donors, 0.1 mg/mL); from tissue; host or cells: human liver microsomes, pool of 50 donors
Procedure: CYP450 inhibition assays was conducted using individual enzyme substrates and inhibitors instead of a cocktail to avoid interferences. CYP450 isoforms tested included the following: CYP1A2, CYP2B6, CYP2C8, CYP2C9, CYP2C19, CYP2D6, and CYP3A4. […] Each test compound was incubated with human liver microsomes (mixed gender, pool of 50 donors, 0.1 mg/mL), CYP450-selective probe substrates, and co-factors (NADPH, MgCl2) in phosphate buffer (pH 7.4) for 10-30 min in a 96-well plate at 37° C. The reactions were stopped by transferring the reaction mixture to acetonitrile/methanol. Samples were mixed and centrifuged, and the supernatants analyzed by LC-MS/MS to quantify percent inhibition relative to vehicle control.

CYP2C19 = biological target: T2, CYP2C19 (Homo sapiens, UniProt P33261); experiment: CYP450 inhibition in human liver microsomes, CYP2C19; assay type: in vitro ADME; conditions: 10 μM
T2 construct: incubated with human liver microsomes (mixed gender, pool of 50 donors, 0.1 mg/mL); from tissue; host or cells: human liver microsomes, pool of 50 donors
Procedure: CYP450 inhibition assays was conducted using individual enzyme substrates and inhibitors instead of a cocktail to avoid interferences. CYP450 isoforms tested included the following: CYP1A2, CYP2B6, CYP2C8, CYP2C9, CYP2C19, CYP2D6, and CYP3A4. Each test compound was screened at a final concentration of 10 μM. Each test compound was incubated with human liver microsomes (mixed gender, pool of 50 donors, 0.1 mg/mL), CYP450-selective probe substrates, and co-factors (NADPH, MgCl2) in phosphate buffer (pH 7.4) for 10-30 min in a 96-well plate at 37° C. The reactions were stopped by transferring the reaction mixture to acetonitrile/methanol. Samples were mixed and centrifuged, and the supernatants analyzed by LC-MS/MS to quantify percent inhibition relative to vehicle control.

[1] = tested on: Enterococcus faecium LSI-3340; experiment: MIC panel (Laboratory Specialists, Inc.), E. faecium LSI-3340; assay type: cell-based; conditions: LSI3340, Cmpd. 6, vancomycin-resistant strain
S. aureus ATCC 29213 [2] = assay type: cell-based, Staphylococcus aureus; conditions: S. aureus ATCC 29213
Histamine H2 = Histamine H2 (Homo sapiens, UniProt P25021); experiment: Off-target safety panel, Histamine H2; assay type: binding; conditions: duplicate, read-out: % Inhibition at 100 μM conc., Histamine H2
Procedure: Potential off-target pharmacology for compound 6 was also evaluated by screening in duplicate against a panel (Bowes, J., et al., Reducing Safety-Related Drug Attrition: The Use of in vitro Pharmacological Profiling. Nat. Rev. Drug Disc. 2012, 11, 909-922) of 44 receptors, enzymes, etc. Of the 44 potential targets, only five were inhibited by >50% at a concentration of 100 μM (Table 7).

[3] = tested on: Acinetobacter baumannii LSI-2957; experiment: MIC panel (Laboratory Specialists, Inc.), A. baumannii; assay type: cell-based; conditions: LSI2957, Cmpd. 6, CLSI broth microdilution
[4] = biological target: T3, Nav 1.5 Human Sodium Ion Channel (Homo sapiens, UniProt Q14524); experiment: Nav 1.5 QPatch CiPA assay; assay type: cell-based; conditions: mean, duplicate
T3 construct: expressed in transfected cells
Text: Early drug discovery programs commonly assess hERG inhibition as the only indicator of potential cardiovascular safety concerns. Researchers have recently recommended a more rigorous evaluation of multiple cardiac ion channels to provide a more comprehensive cardiovascular risk assessment (Fermini, B., et al., A New Perspective in the Field of Cardiac Safety Testing through the Comprehensive In Vitro Proarrhythmia Assay Paradigm. J. Biomolec. Screening 2016, 21, 1-11). Given the promising initial results for 6, further evaluation was undertaken (in duplicate) in a Comprehensive in vitro Proarrhythmia Assay (CiPA) eight assay panel run on the QPatch HT (Sophion, Denmark) automated patch clamp system at three concentrations (3, 30, and 100 μM). All data were filtered for seal quality, seal drop, and current amplitude. A stock solution of the test compound at 30 mM concentration was prepared in DMSO.
The parameters measured were the maximum inward current evoked on stepping to −15 mV from the test pulse. The peak current amplitude was calculated before and after compound addition and the amount of block was assessed by dividing the Test compound current amplitude by the Control current amplitude. Control is the mean hNav1.5 current amplitude collected 15 seconds at the end of the control; Test Compound is the mean hNav1.5 current amplitude collected in the presence of test compound at each concentration. The positive control compound was tetracaine.

physchem = assay type: physicochemical; conditions: aqueous buffer, kinetic from dmso stock; buffered aqueous solution (pH 7.4)
Procedure: Test compounds were prepared at 10 mM in 100% DMSO and diluted into aqueous buffer, pH 7.4, to achieve a final test compound concentration of 100 μM with a final DMSO concentration of 1%. Caffeine and tamoxifen were assayed as control compounds. The samples were shaken for 90 minutes at room temperature and then filtered through a 0.4 μm filter plate. Filtrates were collected and analyzed using LC-MS/MS.

S. aureus ATCC 29213 [5] = experiment: microbe, parasite or virus in culture; assay type: cell-based; conditions: Staphylococcus aureus, ATCC29213, read-out: S. aureus ATCC 29213 MIC (n = 2); CLSI agar dilution
Procedure: In order to determine the spontaneous mutation frequency of investigational agents (Table 4), the MIC was first determined using the agar dilution method as recommended by the Clinical and Laboratory Standards Institute.
Triplicate independent inocula of S. aureus ATCC 29213 were evaluated.

[6] = liver microsomes, pH 7.4, probe midazolam, Exp. 1, read-out: CYP3A4 (midazolam hydroxylase) % of control (Exp. 1)
[7] = liver microsomes, pH 7.4, probe midazolam, Exp. 2, read-out: CYP3A4 (midazolam hydroxylase) % of control (Exp. 2)
[8] = liver microsomes, pH 7.4, probe midazolam, Exp. 3, read-out: CYP3A4 (midazolam hydroxylase) % of control (Exp. 3)

T1 sequence (P08684 whole entry): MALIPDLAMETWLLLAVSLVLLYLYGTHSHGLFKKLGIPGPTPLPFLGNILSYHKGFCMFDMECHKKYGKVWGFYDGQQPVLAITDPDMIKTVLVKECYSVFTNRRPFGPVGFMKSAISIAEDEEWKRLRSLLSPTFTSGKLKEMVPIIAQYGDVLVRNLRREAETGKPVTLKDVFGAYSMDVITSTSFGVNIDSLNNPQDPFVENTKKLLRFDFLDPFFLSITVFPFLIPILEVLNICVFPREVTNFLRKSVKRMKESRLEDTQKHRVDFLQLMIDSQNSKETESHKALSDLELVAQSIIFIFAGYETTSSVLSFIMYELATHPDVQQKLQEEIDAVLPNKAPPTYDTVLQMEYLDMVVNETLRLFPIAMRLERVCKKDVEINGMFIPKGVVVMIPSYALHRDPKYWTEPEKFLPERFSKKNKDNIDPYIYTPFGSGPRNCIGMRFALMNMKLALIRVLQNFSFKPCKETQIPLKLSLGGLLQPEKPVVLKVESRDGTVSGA
T3 sequence (Q14524 whole entry): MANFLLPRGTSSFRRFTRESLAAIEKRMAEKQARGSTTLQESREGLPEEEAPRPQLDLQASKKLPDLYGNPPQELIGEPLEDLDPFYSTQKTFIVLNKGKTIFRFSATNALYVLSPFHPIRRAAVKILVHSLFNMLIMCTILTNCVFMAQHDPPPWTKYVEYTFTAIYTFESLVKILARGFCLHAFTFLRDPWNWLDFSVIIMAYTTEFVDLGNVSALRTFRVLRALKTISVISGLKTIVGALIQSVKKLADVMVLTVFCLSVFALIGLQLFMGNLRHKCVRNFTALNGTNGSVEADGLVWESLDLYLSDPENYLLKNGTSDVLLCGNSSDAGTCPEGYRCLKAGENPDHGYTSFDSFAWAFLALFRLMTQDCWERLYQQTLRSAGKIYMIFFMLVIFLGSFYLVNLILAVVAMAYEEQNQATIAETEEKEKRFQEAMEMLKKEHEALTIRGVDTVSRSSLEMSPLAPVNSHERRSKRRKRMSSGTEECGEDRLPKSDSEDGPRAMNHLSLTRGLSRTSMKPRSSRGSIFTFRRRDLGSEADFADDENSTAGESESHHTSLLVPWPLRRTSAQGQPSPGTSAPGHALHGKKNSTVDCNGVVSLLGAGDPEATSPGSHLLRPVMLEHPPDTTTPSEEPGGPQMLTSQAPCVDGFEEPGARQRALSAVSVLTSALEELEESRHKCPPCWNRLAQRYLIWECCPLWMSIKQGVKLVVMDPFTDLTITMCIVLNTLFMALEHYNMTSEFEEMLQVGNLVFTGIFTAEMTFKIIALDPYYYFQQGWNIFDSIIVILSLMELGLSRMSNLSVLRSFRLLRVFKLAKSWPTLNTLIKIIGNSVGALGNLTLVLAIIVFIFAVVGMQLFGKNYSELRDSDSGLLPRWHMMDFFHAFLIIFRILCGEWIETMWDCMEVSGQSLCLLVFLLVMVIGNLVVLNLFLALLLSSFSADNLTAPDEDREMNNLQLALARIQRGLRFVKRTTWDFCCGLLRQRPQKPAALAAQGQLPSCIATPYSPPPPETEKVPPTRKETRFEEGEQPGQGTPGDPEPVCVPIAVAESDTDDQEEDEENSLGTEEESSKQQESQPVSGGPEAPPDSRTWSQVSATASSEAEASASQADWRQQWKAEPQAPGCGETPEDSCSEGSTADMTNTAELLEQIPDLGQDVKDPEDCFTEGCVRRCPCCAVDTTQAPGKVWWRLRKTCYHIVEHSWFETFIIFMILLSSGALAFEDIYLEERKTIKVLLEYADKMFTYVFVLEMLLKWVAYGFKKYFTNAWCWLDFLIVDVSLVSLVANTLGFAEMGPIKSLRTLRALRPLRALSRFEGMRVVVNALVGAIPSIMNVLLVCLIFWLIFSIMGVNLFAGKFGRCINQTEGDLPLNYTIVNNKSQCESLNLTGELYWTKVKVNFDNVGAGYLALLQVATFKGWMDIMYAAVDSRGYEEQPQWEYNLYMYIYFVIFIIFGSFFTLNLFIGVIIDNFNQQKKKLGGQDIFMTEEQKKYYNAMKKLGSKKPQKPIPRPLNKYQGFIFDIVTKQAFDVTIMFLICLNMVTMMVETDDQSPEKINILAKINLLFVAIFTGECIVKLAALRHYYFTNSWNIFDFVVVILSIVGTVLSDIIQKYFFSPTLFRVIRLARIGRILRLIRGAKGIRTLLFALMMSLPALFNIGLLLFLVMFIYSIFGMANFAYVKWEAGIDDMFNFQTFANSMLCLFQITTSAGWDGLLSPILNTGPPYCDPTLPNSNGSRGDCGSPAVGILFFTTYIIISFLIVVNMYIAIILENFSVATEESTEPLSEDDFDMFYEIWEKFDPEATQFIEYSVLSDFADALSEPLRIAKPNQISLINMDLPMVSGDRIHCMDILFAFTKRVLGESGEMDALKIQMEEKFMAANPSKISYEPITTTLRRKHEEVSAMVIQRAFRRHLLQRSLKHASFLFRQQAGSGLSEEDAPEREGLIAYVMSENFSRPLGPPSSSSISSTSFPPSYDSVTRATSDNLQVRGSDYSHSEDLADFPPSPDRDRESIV
Sequence of Histamine H2 (P25021 whole entry): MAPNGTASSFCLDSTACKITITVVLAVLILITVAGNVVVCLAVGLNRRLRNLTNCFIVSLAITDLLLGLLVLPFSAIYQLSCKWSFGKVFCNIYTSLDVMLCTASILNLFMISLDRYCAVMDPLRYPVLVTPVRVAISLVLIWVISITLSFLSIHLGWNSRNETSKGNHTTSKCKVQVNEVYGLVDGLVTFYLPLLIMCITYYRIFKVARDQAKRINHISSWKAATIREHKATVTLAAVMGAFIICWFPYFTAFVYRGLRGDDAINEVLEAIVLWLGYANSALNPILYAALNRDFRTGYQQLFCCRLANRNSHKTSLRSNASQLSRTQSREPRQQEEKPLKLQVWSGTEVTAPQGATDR
T2 sequence (P33261 whole entry): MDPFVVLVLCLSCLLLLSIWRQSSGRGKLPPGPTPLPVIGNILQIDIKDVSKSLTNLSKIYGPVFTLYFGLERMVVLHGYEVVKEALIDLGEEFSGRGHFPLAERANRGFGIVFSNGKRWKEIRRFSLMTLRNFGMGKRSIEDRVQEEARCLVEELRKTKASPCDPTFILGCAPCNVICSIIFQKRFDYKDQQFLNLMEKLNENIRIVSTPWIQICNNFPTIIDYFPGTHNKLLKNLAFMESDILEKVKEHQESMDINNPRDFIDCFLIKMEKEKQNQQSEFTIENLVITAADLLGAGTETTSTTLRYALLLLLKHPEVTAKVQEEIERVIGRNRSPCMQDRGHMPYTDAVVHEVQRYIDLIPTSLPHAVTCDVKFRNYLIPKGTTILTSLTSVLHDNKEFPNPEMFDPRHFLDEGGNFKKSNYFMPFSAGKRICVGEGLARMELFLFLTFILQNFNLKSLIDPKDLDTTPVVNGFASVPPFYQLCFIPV

**Q.** What does the source list for `COc1ccc2ncc(F)c(CC[C@@]3(O)CO[C@@H]4[C@@H](NCc5cc6c(cn5)OCCO6)CO[C@@H]43)c2n1` [Compound 6, (3R, 3aS,6S,6aR)-6-(((2,3-dihydro-[1,4]dioxino[2,36-c]pyridin-7-yl)methyl)amnino)-3-(2-(3-fluoro-6-methoxy-1,5-naphthyridin-4-yl)ethyl)hexahydrofuro[3,2-b]furan-3-ol]?
**A.** activity at 3 µM (CYP3A4; human liver microsomes, pH 7.4, probe midazolam (midazolam hydroxylase activity), Exp. 1, read-out: CYP3A4 (midazolam hydroxylase) % of control (Exp. 1)): 74.3%; activity at 3 µM (CYP3A4; human liver microsomes, pH 7.4, probe midazolam (midazolam hydroxylase activity), Exp. 2, read-out: CYP3A4 (midazolam hydroxylase) % of control (Exp. 2)): 77.2%; activity at 3 µM (CYP3A4; human liver microsomes, pH 7.4, probe midazolam (midazolam hydroxylase activity), Exp. 3, read-out: CYP3A4 (midazolam hydroxylase) % of control (Exp. 3)): 60.4%; activity at 10 µM (CYP3A4; human liver microsomes, pH 7.4, probe midazolam (midazolam hydroxylase activity), 10 μM, Exp. 3, read-out: CYP3A4 (midazolam hydroxylase) % of control (Exp. 3)): 74.5%; activity at 0.1 µM (CYP3A4; [6]): 116%; activity at 0.1 µM (CYP3A4; [7]): 108%; activity at 0.1 µM (CYP3A4; [8]): 97%; activity at 0.3 µM (CYP3A4; [6]): 89.9%; activity at 0.3 µM (CYP3A4; [7]): 113%; activity at 0.3 µM (CYP3A4; [8]): 99.2%; activity at 1 µM (CYP3A4; [6]): 60.4%; activity at 1 µM (CYP3A4; [7]): 89.8%; activity at 1 µM (CYP3A4; [8]): 89.9%; activity at 10 µM (CYP3A4; liver microsomes, pH 7.4, probe midazolam, 10 μM, Exp. 1, read-out: CYP3A4 (midazolam hydroxylase) % of control (Exp. 1)): 49.5%; activity at 10 µM (CYP3A4; liver microsomes, pH 7.4, probe midazolam, 10 μM, Exp. 2, read-out: CYP3A4 (midazolam hydroxylase) % of control (Exp. 2)): 82.3%; inhibition at 10 µM (CYP3A4; liver microsomes, pH 7.4, probe midazolam, 10 μM, screening assay): 56%; IC50 (CYP3A4; liver microsomes, pH 7.4, probe midazolam, concentration-response assay in triplicate): > 10 µM; CYP2C19 inhibition (CYP2C19): Less than 50%; MIC [1]: 0.25 µg/mL (≈ 0.501 µM); Spontaneous mutation frequency (8X MIC) (S. aureus ATCC 29213 [2]; 8X agar dilution MIC): 7.89 × 10^−8 (n = 1); Spontaneous mutation frequency (16X MIC) (S. aureus ATCC 29213 [2]; 16X agar dilution MIC): 1.57 × 10^−9 (n = 1); inhibition at 100 µM (Histamine H2): 51%; MIC [3]: ≤ 0.12 µg/mL; % Inhibition Nav1.5 (peak current) ([4]; 3 μM): 6.1%; % Inhibition Nav1.5 (peak current) ([4]; 30 μM): 16.7%; % Inhibition Nav1.5 (peak current) ([4]; 100 μM): 21.1%; solubility kinetic (physchem): 76.2 µM (≈ 38 µg/mL); MIC (S. aureus ATCC 29213 [5]): 1 µg/mL (≈ 2.01 µM)
